This is an account of results in paper PMC2568956, “The Antimicrobial Peptide Histatin-5 Causes a Spatially Restricted Disruption on the Candida albicans Surface, Allowing Rapid Entry of the Peptide into the Cytoplasm” (PLoS Pathogens, 2008).

The subject of experiment [1] is S. cerevisiae. As to conditions: cited from earlier work.
A further experiment deals with C. albicans. The arrangement: method as in 4 sources, one per row (each row's own in cited_ref): ref 3, 4 = [3]; PMID 2406266; 3 Raj PA Edgerton M Levine MJ 1990 Salivary histatin 5: dependence of sequence, chain length, and helical conformation for candidacidal activity. J Biol Chem 265 3898 3905 2406266 || [4]; PMID 1855975; doi:10.1128/iai.59.8.2549-2554.1991; 4 Xu T Levitz SM Diamond RD Oppenheim FG 1991 Anticandidal activity of major human salivary histatins. Infect Immun 59 2549 2554 1855975 10.1128/iai.59.8.2549-2554.1991 PMC258054 ||| ref 37 = [37]; PMID 8945538; doi:10.1128/iai.64.12.5000-5007.1996; 37 Tsai H Raj PA Bobek LA 1996 Candidacidal activity of recombinant human salivary histatin-5 and variants. Infect Immun 64 5000 5007 8945538 10.1128/iai.64.12.5000-5007.1996 PMC174480 ||| ref 10, 13, 49 = [10]; PMID 10066791; doi:10.1074/jbc.274.11.7286; 10 Helmerhorst EJ Breeuwer P van't Hoff W Walgreen-Weterings E Oomen LC 1999 The cellular target of histatin 5 on Candida albicans is the energized mitochondrion. J Biol Chem 274 7286 7291 10066791 10 || [13]; PMID 10471575; doi:10.1128/aac.43.9.2256; 13 Xu Y Ambudkar I Yamagishi H Swaim W Walsh TJ 1999 Histatin 3-mediated killing of Candida albicans : effect of extracellular salt concentration on binding and internalization. Antimicrob Agents Chem || [49]; PMID 11083804; doi:10.1128/iai.68.12.6848-6856.2000; 49 Koshlukova SE Araujo MW Baev D Edgerton M 2000 Released ATP is an extracellular cytotoxic mediator in salivary histatin 5-induced killing of Candida albicans . Infect Immun 68 6848 6856 11083804 10 ||| ref 65, 66 = [65]; PMID 11204768; doi:10.1023/a:1026572128004; 65 van't Hoff W Reijnders I Helmerhorst E Walgreen-Weterings E Simoons-Smit I 2000 Synergistic effects of low doses of histatin 5 and its analogues on amphotericin B anti-mycotic activity. Antonie Van || [66]; PMID 16291868; doi:10.1093/jac/dki402; 66 Tanida T Okamoto T Ueta E Yamamoto T Osaki T 2006 Antimicrobial peptides enhance the candidacidal activity of antifungal drugs by promoting the efflux of ATP from Candida cells. J Antimicrob Chemot. The note with it: cited from earlier work.

Experiment [2] deals with C. glabrata. The experiment in a line: FITC-Hst-5 localization in C. glabrata by fluorescence microscopy. Type of experiment: cell-based, Candida glabrata. As to conditions: 50 µM FITC-Hst-5, 30 minutes, 30°C, fixed exposure time 9 ms. How it is done:
(§1) The intracellular localization of FITC-Hst-5 (5, 10, 20, and 50 µM) and FITC-m68 (5, 10, 20, 50, and 200 µM) was investigated either alone or in a double-labeling experiment using FM4-64 (Molecular Probes, Inc. Eugene, OR). Yeast cells in 50 µl (∼10^6 cells/ml) were incubated for 30 minutes at 30°C with 10 µM FITC-Hst-5 and 10 µM FM4-64; the cells were then washed twice with 10 mM NaN3 and 10 mM NaF in 20 mM PBS buffer, and analyzed immediately by wide-field fluorescence microscopy.
(§2) Wide-field fluorescence images were obtained on either Zeiss Axioplan 2 or the inverted Zeiss Axio Observer.Z1 Microscope (Carl Zeiss MicroImaging, Inc. Thornwood, NY) fluorescent system, equipped with the AttoArc HBO 100 and the X-Cite series 120 mercury lamps, respectively. Images were taken using a 100× NA 1.4 objective. Both fluorescence microscopes were equipped with GFP, RFP, and DAPI filter sets.

For experiment [3] the following is noted: liposome model system; cited from earlier work. As to the method: Histatins are a family of low-molecular weight histidine-rich cationic peptides that are found specifically in human salivary secretions. […] It kills C. albicans in vitro at physiological concentrations (15–30 µM),[4]. Structural studies of Hst-5 have shown that it takes on a random coil structure in aqueous solvents and adopts a largely α-helical conformation in non-aqueous solutions [5],[6]. Many antimicrobial cationic peptides form either α ...

In experiment [4] the test system is S. cerevisiae. The experiment can be described thus: FITC-Hst-5 localization in S. cerevisiae by fluorescence microscopy. The format is cell-based, Saccharomyces cerevisiae. As to conditions: 50 µM FITC-Hst-5, 30 minutes, 30°C, fixed exposure time 9 ms. How it is done:
as §1, §2

The test system of experiment [5] is C. glabrata. As to conditions: cited from earlier work.
Experiment [6] has as its system C. albicans cells. Type of experiment: cell-based, Candida albicans. As to conditions: 10 µM FITC-Hst-5, 30 minutes, 30°C, cell sorting, ~200 cells plated on YPD, overnight 30°C, triplicate cultures. How it is done: C. albicans cells were incubated for 30 minutes with 10 µM of FITC-Hst-5 at 30°C. The cells were then washed twice with 20 mM PBS buffer and under went flow cytometric cell sorting using the DAKO Cytomation MoFlo Flow Cytometer (DAKO, Glostrup, Denmark). The results were analyzed on a PC using the software package Summit (version 4.0) provided by DAKO. The cells were sorted by gating the two peaks of the histogram representing vacuolar and cytoplasmic localization of Hst-5. Cellular localization of Hst-5 was confirmed with fluorescence microscopy. The sorted cells were then plated onto YPD plates and incubated overnight at 30°C (data as a mean±1SD of triplicate cultures).

For experiment [7], the system named is C. albicans cells. The experiment in a line: Hst-5 localization studies by fluorescence microscopy. The format is cell-based, Candida albicans. As to the method: as §1, §2
Experiment [8] concerns C. albicans wild-type cells. The experiment in a line: Hst-5 localization in cells treated with latrunculin A or cytochalasin A. Type of experiment: cell-based, Candida albicans. The note with it: cells pre-treated with 50 µM latrunculin A or 5 µM cytochalasin A for 60 minutes at room temperature, then 5 µM FITC-Hst-5, 30 minutes, 30°C. As to the method:
(§3) To depolarize F-actin, cells were treated with either 5 µM cytochalasin A or 50 µM latrunculin A (Sigma, St. Louis, MO) for 1 hour at room temperature. The control cells (wild-type and myo5) were treated with the equivalent volume of the DMSO solvent (0.5%). The cells were then exposed to 5 µM of FITC-Hst-5 for 30 minutes at 30°C. The cells were then washed twice with buffer containing NaN3 and NaF and analyzed by wide-field fluorescence microscopy and flow cytometry.

In experiment [9] the test system is C. albicans vps36 and snf7 mutant cells. The experiment in a line: Hst-5 localization in vps36 and snf7 mutant cells by fluorescence microscopy. The format is cell-based, Candida albicans. The note with it: 10 µM FITC-Hst-5 and 10 µM FM4-64, 30 minutes, 30°C. How it is done: as §1, §2
Experiment [10] has as its system C. albicans cells. The experiment in a line: Concentration-dependent localization of FITC-Hst-5 by flow cytometry (FACS analysis). Type of experiment: cell-based, Candida albicans. The note with it: 30°C, ~10^6 cells/ml; for Percent of population: M2 (Hst-5 localized to the cytoplasm): high intensity peak; for Percent of population: M1 (Hst-5 localized to the vacuole): low intensity peak. How it is done:
as §1
(§4) The distribution of FITC-labeled Hst-5 over the cell population was investigated by using a dual laser fluorescence-activated cell sorter (BD FACSCalibur System, Becton Dickinson, San Jose, CA). The results were analyzed with the software package CellQuest Pro (version 5.1.1) provided by Beckton Dickinson.

For another experiment, the system named is C. albicans myo5 cells. The experiment can be described thus: FITC-Hst-5 localization in myo5 mutant cells by flow cytometry. Type of experiment: cell-based, Candida albicans. The note with it: 10 µM FITC-Hst-5 and 10 µM FM4-64, 10 minutes, 30°C. How it is done:
The intracellular localization of FITC-Hst-5 (5, 10, 20, and 50 µM) and FITC-m68 (5, 10, 20, 50, and 200 µM) was investigated either alone or in a double-labeling experiment using FM4-64 (Molecular Probes, Inc. Eugene, OR). […]
as §3, §4
(In general: Flow cytometry measures light scatter and fluorescence of single cells or particles in a stream.)

The mark [11] stands for this setting: 50 and 200 µM FITC-m68, 30°C, 30 minutes.

In the case of `C[C@H](NC(=O)[C@H](Cc1cnc[nH]1)NC(=O)[C@H](CO)NC(=O)[C@@H](N)CC(=O)O)C(=O)N[C@@H](CCCCN)C(=O)N[C@@H](CCCNC(=N)N)C(=O)N[C@@H](Cc1cnc[nH]1)C(=O)N[C@@H](Cc1cnc[nH]1)C(=O)NCC(=O)N[C@@H](Cc1ccc(O)cc1)C(=O)N[C@@H](CCCCN)C(=O)N[C@@H](CCCNC(=N)N)C(=O)N[C@@H](CCCCN)C(=O)N[C@@H](Cc1ccccc1)C(=O)N[C@@H](Cc1cnc[nH]1)C(=O)N[C@@H](CCC(=O)O)C(=O)N[C@@H](CCCCN)C(=O)N[C@@H](Cc1cnc[nH]1)C(=O)N[C@@H](Cc1cnc[nH]1)C(=O)N[C@@H](CO)C(=O)N[C@@H](Cc1cnc[nH]1)C(=O)N[C@@H](CCCNC(=N)N)C(=O)NCC(=O)N[C@@H](Cc1ccc(O)cc1)C(=O)O` [Hst-5, histatin-5], the “resistance of the yeast to the peptide” value with S. cerevisiae [1] and in the experiment on C. glabrata [5] was “marked resistance” each time. The “killing of C. albicans in combination” value with C. albicans (combined with amphotericin B) is reported as “strong synergistic killing”. Further, the “concentration that kills C. albicans in vitro (physiological concentrations)” value in the experiment with C. albicans (in vitro) is recorded as 15–30 µM. The cellular localization entry was “predominantly localized to the vacuole” in the experiment with C. glabrata [2]; “found bound to the cell surface” in the experiment on S. cerevisiae [4]; “mostly vacuolar localization” in the experiment with C. albicans cells [7] (5 µM FITC-Hst-5, 30 minutes, fluorescence microscopy); “a preponderance of cells had Hst-5 localized within the cytoplasm” in the experiment with C. albicans cells [7] (20 µM FITC-Hst-5, pH 4.5, 30 minutes, 30°C); “no cytoplasmic localization was observed” in the experiment with C. albicans cells [7] (20 µM FITC-Hst-5, pH 9.0, 30 minutes, 30°C); “largely cytoplasmic localization with little vacuolar fluorescence” in the experiment on C. albicans cells [7] (50 µM FITC-Hst-5, 30 minutes, fluorescence microscopy). For the same compound, the cellular localization entry in experiment [8] is “observed in the cytoplasm in a majority of the cells”; in [9], “excluded from the lumen of vacuole-like membrane structures”. Moreover, the lytic effect result in experiment [3] was “little lytic effect”. Also, the “colony formation of sorted cells with cytoplasmic Hst-5” value with C. albicans cells [6] is reported as “none”.
As for “DSHAKRHHGYKRKFHEKHHSHRGY [FITC-Hst-5, FITC-labeled Hst-5]”, the “Percent of population: M2 (Hst-5 localized to the cytoplasm)” value came to 1.94% with C. albicans cells [10] (5 µM FITC-Hst-5, 30 minutes); 34.63% in the experiment on C. albicans cells [10] (10 µM FITC-Hst-5, 30 minutes); 70.43% in the experiment on C. albicans cells [10] (20 µM FITC-Hst-5, 30 minutes); 93.44% in the experiment with C. albicans cells [10] (50 µM FITC-Hst-5, 30 minutes). The “Percent of population: M1 (Hst-5 localized to the vacuole)” value is 96.02% in the experiment with C. albicans cells [10] (5 µM FITC-Hst-5, 30 minutes); 64.02% in the experiment with C. albicans cells [10] (10 µM FITC-Hst-5, 30 minutes); 29.69% in the experiment on C. albicans cells [10] (20 µM FITC-Hst-5, 30 minutes); 6.50% in the experiment on C. albicans cells [10] (50 µM FITC-Hst-5, 30 minutes). The “population with cytoplasmic localization” value with C. albicans myo5 cells is on record as 19.01%. Moreover, the “population with plasma membrane localization” value in the experiment on C. albicans myo5 cells was determined as 80.99%.
Take “DSHAKRHHGYKREFHEKHHSHGGY [m68, variant of Hst-5 reported by Tsai et al.: lysine-13 replaced with glutamic acid and arginine 22 with glycine, reference compound]”: the “killing ability relative to Hst-5” value in the experiment on C. albicans was “significant reduction”.
As to “DSHAKRHHGYKREFHEKHHSHGGY [FITC-m68, FITC-labeled Hst-5 m68]”, the cytoplasmic localization entry in the experiment with C. albicans cells [7] (5, 10 and 20 µM FITC-m68, 30°C, 30 minutes (data not shown)) is “not observed”; in the experiment on C. albicans cells [7] (setting [11]), “only seen in a small portion of the cell population”. Further, the cellular localization entry in the experiment with C. albicans cells [7] (setting [11]) is given as “localized to the vacuole in the majority of cells”.
